Patent US20020122768A1, “Stable radiopharmaceutical compositions and methods for preparation thereof” (priority 2000, published 2002)

Assays:
Format in all cases: physicochemical
[1] = Solution stability of ^90Y-B at −78° C., RCP by radio-HPLC; conditions: ^90Y-B prepared with GA
Protocol: (§1) The integrity of a radiopharmaceutical is measured by the radiochemical purity (RCP) of the radiolabeled compound using ITLC or more preferably HPLC. The advantage of using HPLC is that radio-impurities caused by radiolytic degradation can be separated from the radiopharmaceutical under optimized chromatographic conditions. […] The radiopharmaceutical compositions of this invention are effective in maintaining the long-term stability of samples that have been frozen, thawed, and re-tested periodically for 7 days.
(§2) The initial RCP of a radiopharmaceutical is largely dependent on radiolabeling conditions such as pH, heating temperature and time. Once a radiopharmaceutical is prepared in high yield, the stability of the radiopharmaceutical composition is measured by the` RCP change of the radiopharmaceutical over a certain period of time. For comparison purposes, sodium gentisate or sodium ascorbate was often used as the reference since they have been used in various radiopharmaceutical formulations.
(§3) HPLC method 2 used a HP-1100 HPLC system with a UV/visible detector (λ=220 nm), an IN-US radio-detector, and a Zorbax C18 column (4.6 mm×250 mm, 80 Å pore size). The flow rate was 1 mL/min with a gradient mobile phase starting from 92% solvent A (0.025 M ammonium acetate buffer, pH 6.8) and 8% solvent B (acetonitrile) at 0 min to 90% solvent A and 10% solvent B at 18 min, followed by an isocratic wash using 40% of solvent A and 60% solvent B from 19 to 25 min.
The ITLC method used Gelman Sciences silica-gel ITLC paper strips and 1:1 mixture of acetone and saline as eluant. By this method, the radiolabeled compounds migrate to the solvent front while [^90Y]/^177Lu]colloid and [^90Y]/^177Lu]acetate remain at the origin. […]
The 0.5 M ammonium acetate buffer (pH 8.0) was first degassed under vacuum for 1-2 min. COMPOUND B and gentisic acid (sodium salt, GA) were dissolved in the degassed buffer to give a concentration of 100 μg/mL for COMPOUND B and 20 mg/mL for GA. The resulting solution was immediately degassed under vacuum for another 1-2 min. To a clean sealed 5 mL vial was added 1.0 mL of the degassed 0.5 M ammonium acetate buffer (pH 8.0) containing 100 μg COMPOUND B and 10 mg GA. The solution was degassed again under vacuum. Upon addition of ˜20 μL of ^90YCl3 solution (˜20 mCi) in 0.05 N HCl, the reaction mixture was heated at 100° C. for 5 min. After cooling to room temperature, a sample of the resulting solution was diluted 20-fold with saline containing gentisate (10 mg/mL), and was then analyzed by HPLC (Method 2, injection volume=1-2 μL) and ITLC. […] To the solution above was added 0.5 mL of sodium ascorbate solution (40 mg/mL in 0.5 M ammonium acetate buffer, pH=7.4). The resulting mixture was then kept in a dry-ice box (−78° C.) for 7 days. Samples were analyzed at t=0, 3 and 7 days.
The 0.5 M ammonium acetate buffer (pH 8.0) was first degassed under vacuum for 1-2 min. COMPOUND B and gentisic acid (sodium salt, GA) were dissolved in the degassed buffer to give a concentration of 100 μg/mL for COMPOUND B and 20 mg/mL for GA. The resulting solution was immediately degassed under vacuum for another 1-2 min. To a clean sealed 5 mL vial was added 1.0 mL of the degassed 0.5 M ammonium acetate buffer (pH 8.0) containing 100 μg COMPOUND B and 10 mg GA. The solution was degassed again under vacuum. Upon addition of ˜20 μL of ^90YCl3 solution (˜20 mCi) in 0.05 N HCl, the reaction mixture was heated at 100° C. for 5 min. After cooling to room temperature, a sample of the resulting solution was diluted 20-fold with saline containing gentisate (10 mg/mL), and was then analyzed by HPLC (Method 2, injection volume=1-2 μL) and ITLC. […] To the solution above was added 0.5 mL of 2,3,4-trihydroxybenzoic acid solution (20 mg/mL in 0.5 M ammonium acetate buffer, pH=6.5). The resulting mixture was then kept in a dry-ice box (−78° C.) for 7 days. Samples were analyzed at t=0, 3 and 7 days. […]

[2] = Solution stability of ^177Lu-C at −78° C., RCP by radio-HPLC; conditions: ^177Lu-C prepared using 2 mg GA
Protocol: as §1, §2
as §3, with “method 3” for “method 2”, “from 90%” for “from 92%”, “and 10%” for “and 8%”, “to 88%” for “to 90%”, “and 12%” for “and 10%”
The ITLC method used Gelman Sciences silica-gel ITLC paper strips and 1:1 mixture of acetone and saline as eluant. By this method, the radiolabeled compounds migrate to the solvent front while [^90Y]/^177Lu]colloid and [^90Y]/^177Lu]acetate remain at the origin.
(§4) The 0.5 M ammonium acetate buffer (pH 8.0) was first degassed under vacuum for 1-2 min. COMPOUND C and gentisic acid (sodium salt, GA) were dissolved in the degassed buffer to give a concentration of 100 μg/mL for COMPOUND C and 2 mg/mL for GA. The resulting solution was immediately degassed under vacuum for another 1-2 min. To a clean sealed 5 mL vial was added 1.0 mL of the degassed 0.5 M ammonium acetate buffer (pH 8.0) containing 100 μg COMPOUND C and 2 mg GA. The solution was degassed again under vacuum. Upon addition of ˜20 μL of ^177LuCl3 solution (˜20 mCi) in 0.05 N HCl, the reaction mixture was heated at 100° C. for 5 min. After cooling to room temperature, a sample of the resulting solution was analyzed by HPLC (Method 3, injection volume=5 μL) and ITLC. […] To the solution above was added 0.5 mL of sodium ascorbate solution (40 mg/mL in 0.5 M ammonium acetate buffer, pH=7.4). The resulting mixture was then kept in a dry-ice box (−78° C.) for 7 days. Samples were analyzed at t=0, 3 and 7 days.
as §4, with “COMPOUND” for “The 0.5 M ammonium acetate buffer (pH 8.0) was first degassed under vacuum for 1-2 min. COMPOUND”, “1.0 μL” for “1.0 mL”, “of 2,3,4-THBA” for “of sodium ascorbate”, “solution (20” for “solution (40”
COMPOUND C and gentisic acid (sodium salt, GA) were dissolved in the degassed buffer to give a concentration of 100 μg/mL for COMPOUND C and 2 mg/mL for GA. The resulting solution was immediately degassed under vacuum for another 1-2 min. […]

[3] = as above; conditions: ^177Lu-C prepared using 2 mg GA, degassed, second stabilizer (20 mg AA, 20 mg DSA, 10 mg 2,3,4-THBA, 10 mg 3,4,5-THBA) added post-labeling
[4] = degassed, second stabilizer (20 mg AA, 20 mg DSA, 10 mg 2,3,4-THBA, 10 mg HABA) added post-labeling
[5] = second stabilizer added post-labeling, t = 0 to 7 days
[6] = degassed, second stabilizer (20 mg AA, 20 mg DSA, 10 mg 2,3,4-THBA, 10 mg 3,4,5-THBA) added post-labeling

## O=C1O[C@H]([C@@H](O)CO)C([O-])=C1O.[Na+] [AA, sodium ascorbate, reference compound]
[1]; [4]
  RCP (%) t = 0: 95.0%
  RCP (%) t = 3 days: 93.9%
  RCP (%) t = 7 days: 94.5%
[1]; [5]
  RCP (%) change: 0.5%
[2]; [6]
  RCP (%) t = 0: 97.6%
  RCP (%) t = 3 days: 97.5%
  RCP (%) t = 7 days: 93.0%
[2]; [5]
  RCP (%) change: 4.6%
[3]
  RCP (%) t = 1 day: 97.7%
